Test results: ChEMBL document CHEMBL2440095, “Synthesis and activity of novel tetrazole compounds and their pyrazole-4-carbonitrile precursors against Leishmania spp” (Bioorg Med Chem Lett, 2013)

Columns and labels:
[1] = Cytotoxicity against mouse RAW264.7 cells after 24 hrs by MTT assay; format: cell-based
Leishmania amazonensis = assay: Antipromastigote activity against Leishmania amazonensis MHOM/BR/77/LTB0016 after 24 hrs by MTT assay; format: functional, organism-based; conditions: MHOM/BR/77/LTB0016, 24 h
Leishmania braziliensis = assay: Antipromastigote activity against Leishmania braziliensis MCAN/BR/98/R619 after 24 hrs by MTT assay; format: functional, organism-based; conditions: MCAN/BR/98/R619, 24 h

## N=C(N)c1ccc(OCCCCCOc2ccc(C(=N)N)cc2)cc1 [PENTAMIDINE]
[1]
  CC50 at 24 h: 25.5 µM
Leishmania amazonensis
  IC50: 3.38 µM
Leishmania braziliensis
  IC50: 13 µM
